Experimental data taken from US10154974B1, “Use of abscisic acid for the prevention and treatment of malaria” (The Regents of the University of California, priority 2015, dated 2018).

Columns and labels:
[1] = Whole liver and spleen weights; format: in vivo, mice; details: day 9 post-infection with P. yoelii 17XNL
Method: FIG. 20A-C illustrate that ABA supplemented mice have reduced hepatosplenomegaly and evidence of improved liver function. Shown are weights of whole liver (FIG. 20A) and spleen (FIG. 20B) from control and ABA-supplemented mice on day 9 post-infection with P. yoelii 17XNL. Also shown are blood urea nitrogen levels (FIG. 20C) in plasma of uninfected and P. yoelii-infected, control and ABA-supplemented mice on day 11 post-infection. Data were analyzed by unpaired t-test.

[2] = test system: cytokine and immune-regulators; experiment: Cytokine and immune-regulator mRNA in spleen and liver; format: in vivo; details: CD1 mice, day 4 and 7 post-infection
Method: FIG. 23A-B illustrate that ABA supplementation alters cytokine expression in the spleen and liver of infected mice consistent with enhanced IgG production and inflammasome activation. Shown are mRNA levels of cytokine and immune-regulators in the spleen (FIG. 23A) and liver (FIG. 23B) of control and ABA-supplemented CD1 mice on day 4 and 7 post-infection with P. yoelii 17XNL. Data are shown as −Δct, normalized to β-actin and were analyzed by unpaired t-test. # p<0.1 * p<0.05 ** p<0.01.

[3] = test system: nitric oxide synthase (NOS); experiment: NOS transcript levels in mouse liver and spleen; format: in vivo, mice; details: day 7 of infection
Method: For mosquito immune gene expression, 20 midguts were dissected from mosquitoes in each treatment group at 1, 2, 4, 6, 8 and 24 hours post-feeding. Midguts were sonicated and stored in Trizol at −20° C. for up to a week before RNA was extracted according to manufacturer's instructions. cDNA synthesis was carried out using QantiTect Reverse Transcription Kit (Qiagen) and 200 ng of cDNA used per reaction for qRT-PCR with Sybr Green (Applied Biosystems). Fold changes in expression levels were calculated using the comparative threshold cycle method. Data were normalized to the housekeeping gene ribosomal protein S7 and to the control treatment. Primers and cycling conditions for AsNOS, defensin, LRIM, TEP1, and APL1 were as previously described (Hauck E S, et al. Microbes Infect. 2013; 15:775-87). For gene expression analysis of mouse liver and spleen, organs were flash frozen after necropsy and stored at −80° C. before RNA was extracted in Trizol and cDNA synthesized. Real-time PCR was performed using TaqMan probe-based expression assays for mouse NOS2, PPARγ (Mm00440940), and β-actin (Applied Biosystems) with volumes and cycling conditions as previously described (Chau et al., Infect Immun, 2013, 81:3515-26). Samples were analyzed in triplicate with 250 ng of cDNA per reaction to confirm uniformity of amplification. […] All expression data were analyzed by one sample t-test.

P. yoelii 17XNL [4] = experiment: P. yoelii 17XNL infection of CD1 mice given ABA in drinking water (parasitemia, gametocytemia); format: in vivo
Method: 6-8 week old female CD1 mice (Jackson) were housed four to a cage and provided with unsupplemented water or water supplemented with 2.56 mM (±)-abscisic acid (CAS Registry Number 14375-45-2) obtained from Sigma-Aldrich (Catalog No. A1049). Water and supplemented water were changed daily. […] Mouse weight, water consumption per cage, and parasitemia were monitored daily. Parasitemia was determined from thin blood films stained with Giemsa. Parasitemia was measured as the percentage of infected RBCs divided by total RBCs, while gametocytemia was measured as the proportion of gametocyte-containing RBCs of total infected RBCs. Four mice were used per group in replicated studies. Daily parasitemias and gametocytemias were analyzed by unpaired t-test.

TAK = TAK phosphorylation in mosquito midgut; format: in vivo, Anopheles stephensi; details: ABA-supplemented parasite-fed mosquito midguts
Method: FIG. 11A-D illustrate that ABA decreases P. falciparum infection by increasing TAK phosphorylation. […] Each dot represents one replicate of 15 pooled midguts. […] Phosphorylated TAK levels were analyzed by one sample t-test, NOS expression by Wilcoxon matched-pairs signed rank test, and infection prevalence by Fisher's exact test. * p<0.05.

[5] = test system: inflammatory bowel disease (IBD); details: ABA supplementation; cited from earlier work
P. yoelii 17XNL [6] = experiment: P. yoelii transmission from ABA-supplemented mice to A. stephensi (oocyst counts); format: in vivo
Method: Anopheles stephensi Liston (Indian wild-type strain) were reared and maintained at 27° C. and 75% humidity. For all feeding experiments, 3-5-day-old female mosquitoes were maintained on water pads for 24 hours and then allowed to bloodfeed for 30 minutes on control or ABA-supplemented P. yoelii 17XNL-infected mice. Cohorts of 50 mosquitoes were allowed to feed on each mouse at 5 days post-infection. Immediately after feeding non-engorged mosquitoes were removed. Ten days post-feeding, midguts were dissected, stained with 0.5% mercurochrome, and oocysts counted by microscopy.

liver = experiment: Liver histology scoring; format: in vivo, mice
Method: Mice were euthanized on day 7 post-infection. Blood was collected by heart puncture, spun at 8,000 rpm for 8 minutes and the plasma collected for ABA quantification. Livers and spleens were collected, retained in 10% formalin for 24 hours and then stored in 70% ethanol before sectioning and staining with hematoxylin and eosin. Liver sections were blindly scored on a scale from 0 to 3 for pigment levels, Kupffer cell density, portal tract inflammation, hemozoin deposition, extramedullary hematopoiesis, sinusoidal leukocyte density, sinusoidal adherence of leukocytes, and presence of microabscesses. Spleen sections were blindly scored on a scale from 0 to 3 for hyperplasia, extramedullary hematopoiesis, pigment, and levels of histiocytes and neutrophils. Pathology scores of control and treated mice were analyzed by unpaired t-test.

ILP3 and ILP4 = experiment: Insulin-like peptide mRNA levels in mosquito midgut; format: in vivo, Anopheles stephensi; details: P. falciparum-fed mosquitoes
Method: FIG. 14A-B illustrate that ABA reduces insulin-like peptide expression in the midgut. Specifically, mRNA levels are shown of ILP3 (FIG. 14A) and ILP4 (FIG. 14B) in ABA-treated, P. falciparum-fed mosquito midguts. Data are shown as fold change compared to control-treated mosquitoes. Each dot represents one replicate of 10 pooled midguts. Data were analyzed by one sample t-test. * p<0.05.

influenza = details: ABA treatment; cited from earlier work
AMPK = AMPK phosphorylation in mosquito midgut; format: in vivo, Anopheles stephensi; details: midguts of ABA-treated, P. falciparum-fed mosquitoes
Method: Fold change is shown in levels of phosphorylated AMPK (FIG. 13A), and gsk3 (FIG. 13B) in the midguts of ABA-treated, P. falciparum-fed mosquitoes compared to controls. Each dot represents one replicate of 15 pooled midguts. Data were analyzed by one sample t-test. * p<0.05.

[7] = infected mice, day 7 post-infection

## CC1=CC(=O)CC(C)(C)[C@@]1(O)/C=C/C(C)=C\C(=O)O (racemic) [ABA, (2Z,4E)-5-[(1S)-1-hydroxy-2,6,6-trimethyl-4-oxocyclohex-2-en-1-yl]-3-methylpenta-2,4-dienoic acid]
[1]
  hepatosplenomegaly (weights of whole liver and spleen): reduced
[2]
  cytokine expression in the spleen and liver: alters
[3]
  transcript levels of nitric oxide synthase (NOS): decreased
P. yoelii 17XNL [4]; CD1 mice, day 4 to day 7 post-infection, relative to controls (Example 1)
  parasitemia: reduced
P. yoelii 17XNL [4]; CD1 mice, day 6 of infection (Example 1)
  gametocytemia: reduced
P. yoelii 17XNL [4]; day 5 post-infection (Example 2)
  gametocytemia: reduced
P. yoelii 17XNL [4]; starting on day 3 post-infection, compared to controls (Example 2)
  parasitemia: reduced
TAK
  TAK phosphorylation: increasing
[5]
  epithelial erosion and leukocyte infiltration: reduced
P. yoelii 17XNL [6]; A. stephensi fed on ABA-supplemented mice on day 5
  mean oocysts per midgut: 12
P. yoelii 17XNL [6]; A. stephensi fed on ABA-supplemented mice on day 5, dissected ten days later
  infection prevalence of mosquitoes: 60.9%
P. yoelii 17XNL [6]; vs mosquitoes fed on control mice
  reduction in prevalence: 31.4%
liver; absence of infection
  number of sinusoidal leukocytes in the liver: decreased
liver; [7]
  adhered leukocytes in the liver: fewer
  microabscesses in the liver: fewer
liver; liver, P. yoelii-infected mice
  hemozoin deposition, pigment, portal tract inflammation, extramedullary hematopoeisis, Kupffer cell density: not altered
ILP3 and ILP4
  insulin-like peptide expression: reduces
influenza
  vascular infiltrates: decreased
  viral load: no effect
AMPK
  phosphorylation of AMPK: alters phosphorylation
